Assay [1] deals with T1, Pim-1 (Homo sapiens, UniProt P11309).
T1 construct: full-length human recombinant His6-labelled Pim-1, Pim-2 or Pim-3 protein; His6; made in house
Nature of the assay: TR-FRET assay of Pim kinase activity (phosphorylation of Bad Ser112), Pim-1. In kind it is biochemical. The settings on record: ATP 40 μM, read-out: IC50 Pim1. As for the experimental part:
(§1) In order to determine the inhibition of Pim kinase activity, the compounds of the invention are tested in accordance with a routinely-used in-vitro TR-FRET assay (“Time Resolved-Fluorescence Resonance Energy Transfer”). […] For the assay, the following reagents are used:
(§2) Pim kinase—full-length human recombinant His6-labelled Pim-1, Pim-2 or Pim-3 protein (prepared according to J. Mol. Biol. (2005) 348, 183-193); Bad—full-length human recombinant His6-labelled Bad protein (prepared according to J. Mol. Biol. (2005) 348, 183-193); α-His6-APC—mouse monoclonal antibody conjugated to allophycocyanine SureLight™ directed against the His6 label (Perkin-Elmer, No. AD0059H, Waltham, Mass., United States); α-P˜Bad-Eu—mouse monoclonal antibody (Cell Signaling Technology #9296B, Danvers, Mass., United States) directed against phosphoBad (Ser112) (7E11) labelled on request by Perkin-Elmer with the reagent LANCE™ Eu-W1024.
(§3) The assay is based on the LANCE™ technology from Perkin-Elmer: the Eu-labelled antibody binds to phospho-Ser112 and generates a TR-FRET signal by interaction with the […] antibody directed against His6, bound to the His6 label of Bad. The TR-FRET signal is detected using a SpectraMax M5 plate reader (Molecular Devices) with the following settings: λex=340 nm, λem1=615 nm, λem2=665 nm. The ratio of the fluorescence signal at 665 nm to the fluorescence signal at 615 nm is used as the signal reading for the IC50 (calculations based on the 4-parameter logistic model). The assay is performed in 384-well format; the liquid manipulations are performed using a Beckmann 3000 liquid manipulation station. The test compounds are tested at 10 concentration points in duplicate; the highest concentration of compound is typically equal to 30 μM. The ATP concentration is equal to 40 μM.

For assay [2], the target named is T2, Pim-2 (Homo sapiens, UniProt Q9P1W9).
T2 construct: full-length human recombinant His6-labelled Pim-1, Pim-2 or Pim-3 protein; His6; made in house
Nature of the assay: TR-FRET assay of Pim kinase activity (phosphorylation of Bad Ser112), Pim-2. It counts as biochemical. The settings on record: ATP 40 μM, read-out: IC50 Pim2. As for the experimental part: as §1, §2, §3
A general note: Time-resolved FRET reads energy transfer from a long-lived donor to a nearby acceptor.

The target in assay [3] is T3, Pim-3 (Homo sapiens, UniProt Q86V86).
T3 construct: full-length human recombinant His6-labelled Pim-1, Pim-2 or Pim-3 protein; His6; made in house
The assay can be described thus: TR-FRET assay of Pim kinase activity (phosphorylation of Bad Ser112), Pim-3. The following applies: ATP 40 μM, read-out: IC50 Pim3. It counts as biochemical. As for the experimental part:
as §1, §2, §3

Assay [4] concerns the target CDK1 (Homo sapiens, UniProt P06493). Nature of the assay: Biochemical results, IC50 CDK1.
Assay [5] concerns the target PLK1 (Homo sapiens, UniProt P53350). Nature of the assay: Biochemical results, IC50 PLK1.

T2 sequence (Q9P1W9 whole entry): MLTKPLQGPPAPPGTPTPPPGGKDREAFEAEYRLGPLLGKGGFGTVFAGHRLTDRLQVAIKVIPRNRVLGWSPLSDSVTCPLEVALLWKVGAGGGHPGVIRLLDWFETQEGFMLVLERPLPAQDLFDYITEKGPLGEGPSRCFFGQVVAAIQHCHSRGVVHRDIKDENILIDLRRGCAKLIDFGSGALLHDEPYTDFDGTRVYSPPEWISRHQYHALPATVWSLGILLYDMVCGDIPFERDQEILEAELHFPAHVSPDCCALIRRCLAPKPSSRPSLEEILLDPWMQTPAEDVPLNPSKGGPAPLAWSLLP
Chain of CDK1 (P06493 whole entry, species assumed): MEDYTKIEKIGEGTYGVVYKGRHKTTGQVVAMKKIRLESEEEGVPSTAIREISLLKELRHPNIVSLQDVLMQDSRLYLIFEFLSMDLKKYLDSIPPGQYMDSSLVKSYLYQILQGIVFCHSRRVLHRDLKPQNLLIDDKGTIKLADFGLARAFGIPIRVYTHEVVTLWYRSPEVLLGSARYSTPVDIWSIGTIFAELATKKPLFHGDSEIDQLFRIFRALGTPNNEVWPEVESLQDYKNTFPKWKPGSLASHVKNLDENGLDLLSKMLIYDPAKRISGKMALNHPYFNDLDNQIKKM
Chain of CDK1 (P14635 whole entry partner, species assumed): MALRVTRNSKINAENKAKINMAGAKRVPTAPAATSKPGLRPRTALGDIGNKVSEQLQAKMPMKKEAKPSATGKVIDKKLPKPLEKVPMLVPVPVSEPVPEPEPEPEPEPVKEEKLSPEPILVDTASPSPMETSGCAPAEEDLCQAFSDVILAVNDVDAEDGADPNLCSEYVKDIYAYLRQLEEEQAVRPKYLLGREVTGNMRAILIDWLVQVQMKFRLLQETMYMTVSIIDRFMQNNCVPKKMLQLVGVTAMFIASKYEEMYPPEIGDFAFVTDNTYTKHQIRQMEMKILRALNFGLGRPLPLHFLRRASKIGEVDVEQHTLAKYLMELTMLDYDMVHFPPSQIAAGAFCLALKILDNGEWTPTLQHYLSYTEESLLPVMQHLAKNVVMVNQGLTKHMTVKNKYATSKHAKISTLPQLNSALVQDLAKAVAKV
Chain of PLK1 (P53350 whole entry, species assumed): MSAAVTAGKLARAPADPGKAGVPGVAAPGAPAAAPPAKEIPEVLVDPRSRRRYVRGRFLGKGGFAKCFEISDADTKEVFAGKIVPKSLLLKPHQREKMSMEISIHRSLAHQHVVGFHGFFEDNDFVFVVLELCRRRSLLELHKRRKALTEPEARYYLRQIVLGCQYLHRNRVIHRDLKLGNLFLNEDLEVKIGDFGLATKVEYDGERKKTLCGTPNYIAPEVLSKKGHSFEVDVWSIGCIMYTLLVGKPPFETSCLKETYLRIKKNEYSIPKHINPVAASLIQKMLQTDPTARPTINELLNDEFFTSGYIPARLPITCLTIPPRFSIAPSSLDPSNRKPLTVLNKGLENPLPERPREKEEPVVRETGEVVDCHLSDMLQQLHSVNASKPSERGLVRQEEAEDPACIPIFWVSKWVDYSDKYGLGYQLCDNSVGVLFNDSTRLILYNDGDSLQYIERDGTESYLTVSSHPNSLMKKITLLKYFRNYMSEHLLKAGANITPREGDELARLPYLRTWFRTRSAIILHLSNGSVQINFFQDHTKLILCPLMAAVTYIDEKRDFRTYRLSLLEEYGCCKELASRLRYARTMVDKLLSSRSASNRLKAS
T1 sequence (P11309 whole entry): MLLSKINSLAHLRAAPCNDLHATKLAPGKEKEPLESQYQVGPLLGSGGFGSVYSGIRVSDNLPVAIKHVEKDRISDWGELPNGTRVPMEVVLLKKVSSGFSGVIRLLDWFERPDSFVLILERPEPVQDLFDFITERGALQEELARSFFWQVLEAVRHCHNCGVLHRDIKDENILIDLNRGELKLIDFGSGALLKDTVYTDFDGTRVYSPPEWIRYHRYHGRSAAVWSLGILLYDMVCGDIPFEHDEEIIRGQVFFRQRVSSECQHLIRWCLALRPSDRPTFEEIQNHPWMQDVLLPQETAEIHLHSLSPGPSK

For the compound `CS(=O)(=O)NCCNC(=O)c1ccc(-c2c(F)cnc3[nH]c4cnc(-c5cccnc5)cc4c23)cc1` [Example 62, 4-[3-fluoro-6-(pyridin-3-yl)-9H-pyrrolo[2,3-b:5,4-c′]dipyridin-4-yl]-N-{2-[(methylsulfonyl)amino]ethyl}benzamide], the concentration for half-maximal inhibition (IC50) in assay [1] is less than 100 nM; in assay [2], 1000 to 5000 nM; in assay [3] it was less than 100 nM; in assay [4] it was 100 to 1000 nM; in assay [5] it was 100 to 1000 nM.
With `CN1CCCC1CCNC(=O)c1ccc(-c2c(F)cnc3[nH]c4cnc(-c5cccnc5)cc4c23)cc1` (stereo not drawn) [Example 65, 4-[3-fluoro-6-(pyridin-3-yl)-9H-pyrrolo[2,3-b:5,4-c′]dipyridin-4-yl]-N-[2-(1-methylpyrrolidin-2-yl)ethyl]benzamide], the half-maximal inhibitory concentration (IC50) in assay [1] was less than 100 nM; in assay [2], 100 to 1000 nM; in assay [3], less than 100 nM; in assay [4] it was 1000 to 5000 nM; in assay [5] it was 100 to 1000 nM.
As for `O=C(NCCNc1ccccn1)c1ccc(-c2c(F)cnc3[nH]c4cnc(-c5cccnc5)cc4c23)cc1` [Example 78, 4-[3-fluoro-6-(pyridin-3-yl)-9H-pyrrolo[2,3-b:5,4-c′]dipyridin-4-yl]-N-[2-(pyridin-2-ylamino)ethyl]benzamide], the IC50 was less than 100 nM in assay [1]; 100 to 1000 nM in assay [2]; less than 100 nM in assay [3]; 100 to 1000 nM in assay [4]; less than 100 nM in assay [5].
Take `O=C(c1ccc(-c2c(F)cnc3[nH]c4cnc(-c5cccnc5)cc4c23)cc1)N1CCC(N2CCCC2)C1` (stereo not drawn) [Example 80, 1.3′-bipyrrolidin-1′-yl{4-[3-fluoro-6-(pyridin-3-yl)-9H-pyrrolo[2,3-b:5,4-c′]dipyridin-4-yl]phenyl}methanone]: the IC50 was less than 100 nM in assay [1]; 100 to 1000 nM in assay [2]; less than 100 nM in assay [3]; 100 to 1000 nM in assay [4]; 100 to 1000 nM in assay [5].
With `Cc1n[nH]cc1CNC(=O)c1ccc(-c2c(F)cnc3[nH]c4cnc(-c5cccnc5)cc4c23)cc1` [Example 73, 4-[3-fluoro-6-(pyridin-3-yl)-9H-pyrrolo[2,3-b:5,4-c′]dipyridin-4-yl]-N-[(3-methyl-1H-pyrazol-4-yl)methyl]benzamide], the IC50 was less than 100 nM in assay [1]; 100 to 1000 nM in assay [2]; less than 100 nM in assay [3]; 100 to 1000 nM in assay [4]; less than 100 nM in assay [5].
Consider `CC1CCCCN1CCNC(=O)c1ccc(-c2c(F)cnc3[nH]c4cnc(-c5cccnc5)cc4c23)cc1` (stereo not drawn) [Example 55, 4-[3-fluoro-6-(pyridin-3-yl)-9H-pyrrolo[2,3-b:5,4-c′]dipyridin-4-yl]-N-[2-(2-methylpiperidin-1-yl)ethyl]benzamide], for which the IC50 is less than 100 nM in assay [1]; 100 to 1000 nM in assay [2]; less than 100 nM in assay [3]; 100 to 1000 nM in assay [4]; 100 to 1000 nM in assay [5].
For the compound `CC(C)(CNC(=O)c1ccc(-c2c(F)cnc3[nH]c4cnc(-c5cccnc5)cc4c23)cc1)N1CCCC1` [Example 58, 4-[3-fluoro-6-(pyridin-3-yl)-9H-pyrrolo[2,3-b:5,4-c′]dipyridin-4-yl]-N-[2-methyl-2-(pyrrolidin-1-yl)propyl]benzamide], the concentration for half-maximal inhibition (IC50) is less than 100 nM in assay [1]; 100 to 1000 nM in assay [2]; less than 100 nM in assay [3]; 1000 to 5000 nM in assay [4]; 100 to 1000 nM in assay [5].
As for `O=C(NCc1ncc[nH]1)c1ccc(-c2c(F)cnc3[nH]c4cnc(-c5cccnc5)cc4c23)cc1` [Example 76, 4-[3-fluoro-6-(pyridin-3-yl)-9H-pyrrolo[2,3-b:5,4-c′]dipyridin-4-yl]-N-(1H-imidazol-2-ylmethyl)benzamide], the IC50 in assay [1] was less than 100 nM; in assay [2], 100 to 1000 nM; in assay [3] it was less than 100 nM; in assay [4], 100 to 1000 nM; in assay [5], less than 100 nM.
With `CNCCNC(=O)c1ccc(-c2c(F)cnc3[nH]c4cnc(-c5cccnc5)cc4c23)cc1` [Example 88, 4-[3-fluoro-6-(pyridin-3-yl)-9H-pyrrolo[2,3-b:5,4-c′]dipyridin-4-yl]-N-[2-(methylamino)ethyl]benzamide], the IC50 was less than 100 nM in assay [1]; less than 100 nM in assay [2]; less than 100 nM in assay [3]; 100 to 1000 nM in assay [4]; 100 to 1000 nM in assay [5].
With `CN1C[C@@H]2CCN(C(=O)c3ccc(-c4c(F)cnc5[nH]c6cnc(-c7cccnc7)cc6c45)cc3)[C@@H]2C1` [Example 47, {4-[3-fluoro-6-(pyridin-3-yl)-9H-pyrrolo[2,3-b:5,4-c′]dipyridin-4-yl]phenyl}[(3aS,6aS)-5-methylhexahydropyrrolo[3,4-b]pyrrol-1(2H)-yl]methanone], the IC50 in assay [1] is less than 100 nM; in assay [2], less than 100 nM; in assay [3], less than 100 nM; in assay [4], 100 to 1000 nM; in assay [5], 100 to 1000 nM.
For the compound `CCN1CCCC(NC(=O)c2ccc(-c3c(F)cnc4[nH]c5cnc(-c6cccnc6)cc5c34)cc2)C1` (stereo not drawn) [Example 54, N-(1-ethylpiperidin-3-yl)-4-[3-fluoro-6-(pyridin-3-yl)-9H-pyrrolo[2,3-b:5,4-c′]dipyridin-4-yl]benzamide], the IC50 in assay [1] was less than 100 nM; in assay [2], 100 to 1000 nM; in assay [3], less than 100 nM; in assay [4] it was 100 to 1000 nM; in assay [5] it was 100 to 1000 nM.
Take `O=C(NCCNc1ccccc1)c1ccc(-c2c(F)cnc3[nH]c4cnc(-c5cccnc5)cc4c23)cc1` [Example 50, 4-[3-fluoro-6-(pyridin-3-yl)-9H-pyrrolo[2,3-b:5,4-c′]dipyridin-4-yl]-N-[2-(phenylamino)ethyl]benzamide]: the IC50 is 100 to 1000 nM in assay [1]; greater than 5000 nM in assay [2]; 100 to 1000 nM in assay [3]; 100 to 1000 nM in assay [4]; less than 100 nM in assay [5].
Regarding `CN1CCC(N(C)C(=O)c2ccc(-c3c(F)cnc4[nH]c5cnc(-c6cccnc6)cc5c34)cc2)CC1` [Example 81, 4-[3-fluoro-6-(pyridin-3-yl)-9H-pyrrolo[2,3-b:5,4-c′]dipyridin-4-yl]-N-methyl-N-(1-methylpiperidin-4-yl)benzamide], the IC50 in assay [1] is less than 100 nM; in assay [2] it was 1000 to 5000 nM; in assay [3] it was less than 100 nM; in assay [4], 1000 to 5000 nM; in assay [5], 100 to 1000 nM.
Turning to `Cn1cc(-c2cc3c(cn2)[nH]c2ncc(F)c(-c4ccc(C(N)=O)cc4)c23)cn1` [Example 104, 4-[3-fluoro-6-(1-methyl-1H-pyrazol-4-yl)-9H-pyrrolo[2,3-b:5,4-c′]dipyridin-4-yl]benzamide], the IC50 in assay [1] was less than 100 nM; in assay [2] it was 100 to 1000 nM; in assay [3], less than 100 nM; in assay [4] it was 100 to 1000 nM; in assay [5], 100 to 1000 nM.
As for `CN(C)[C@@H]1CCN(C(=O)c2ccc(-c3c(F)cnc4[nH]c5cnc(-c6cccnc6)cc5c34)cc2)C1` [Example 46, [(3R)-3-(dimethylamino)pyrrolidin-1-yl]{4-[3-fluoro-6-(pyridin-3-yl)-9H-pyrrolo[2,3-b:5,4-c′]dipyridin-4-yl]phenyl}methanone], the IC50 is less than 100 nM in assay [1]; 1000 to 5000 nM in assay [2]; less than 100 nM in assay [3]; 100 to 1000 nM in assay [4]; 100 to 1000 nM in assay [5].

In general, IC50 refers to the midpoint of a concentration-inhibition curve.

The record behind these values is patent publication US20120208809A1, “9H-PYRROLO[2,3-B: 5,4-C'] DIPYRIDINE AZACARBOLINE DERIVATIVES, PREPARATION THEREOF, AND THERAPEUTIC USE THEREOF” (SANOFI, priority 2009, published 2012).
